Laboratory results taken from US9120749B2, “Quinoline derivatives and MELK inhibitors containing the same” (ONCOTHERAPY SCIENCE, INC., priority 2010, dated 2015).
Like-named read-outs stand apart in the source and are kept apart here.

Key:
DU4475 = test: Cell-based assay: anti-proliferative activity, Cell Counting Kit-8, 72 hours (DU4475); settings: Homo sapiens, DU-4475, DU4475 cells
A549 cells = test: Cell-based assay: anti-proliferative activity, Cell Counting Kit-8, 72 hours (A549); settings: 72 hours
Method in brief: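 Cell Counting Kit-8 read-out of A549 growth after 72 hours of inhibitor exposure, cells plated in 96-well format. Values reported as IC50.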

HT-1197 cells = test: Cell-based assay: anti-proliferative activity, Cell Counting Kit-8, 72 hours (HT-1197, negative control without MELK expression); settings: Homo sapiens, HT1197, 72 h, HT1197 cells (negative control, no MELK expression), 72 hours
Method in brief: (§1)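 T47D, A549 and BT-549 cells, with MELK-negative HT-1197 as control (MELK status checked by western blot), seeded at 2,000–3,000 cells/well. Growth measured by CCK-8 72 hours after inhibitor exposure; IC50 values calculated.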

T47D cells = test: Cell-based assay: anti-proliferative activity, Cell Counting Kit-8, 72 hours (T47D)
Method in brief: as §1

MELK = MELK (Homo sapiens, UniProt Q14680); test: Kinase assay: MELK activity, phosphorylation of FITC-labeled histone H3 peptide measured by IMAP fluorescence polarization; format: biochemical; settings: read-out: IC50 (μM) (kinase assay)
MELK, sequence (Q14680 whole entry, looked up): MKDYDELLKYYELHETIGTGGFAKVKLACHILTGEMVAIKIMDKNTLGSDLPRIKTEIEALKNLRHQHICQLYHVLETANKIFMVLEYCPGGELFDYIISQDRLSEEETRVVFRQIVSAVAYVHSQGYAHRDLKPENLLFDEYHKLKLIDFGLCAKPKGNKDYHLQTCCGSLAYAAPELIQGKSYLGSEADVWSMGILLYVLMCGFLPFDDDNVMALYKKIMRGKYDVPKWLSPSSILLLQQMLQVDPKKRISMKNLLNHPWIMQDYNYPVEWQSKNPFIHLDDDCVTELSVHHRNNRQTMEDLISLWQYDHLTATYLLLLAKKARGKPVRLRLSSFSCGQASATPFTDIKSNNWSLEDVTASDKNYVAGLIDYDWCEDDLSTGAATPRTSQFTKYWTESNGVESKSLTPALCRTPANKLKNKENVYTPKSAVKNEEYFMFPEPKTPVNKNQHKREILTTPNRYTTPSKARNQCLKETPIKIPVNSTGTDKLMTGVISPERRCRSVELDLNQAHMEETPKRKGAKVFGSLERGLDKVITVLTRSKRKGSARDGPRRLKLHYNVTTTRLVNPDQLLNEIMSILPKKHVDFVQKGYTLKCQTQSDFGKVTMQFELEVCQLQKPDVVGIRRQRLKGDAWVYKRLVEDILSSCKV
Method in brief: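 A FITC-labelled histone H3 peptide served as substrate, with compounds serially diluted to 1% DMSO final. Reactions were stopped with three volumes of IMAP progressive binding solution. After 0.5 h at room temperature, fluorescence polarization was read.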

[1] = 50 micro-M ATP, FITC-labeled histone H3 peptide substrate, IMAP fluorescence polarization

Compound | IC50 (DU4475) [µM] | IC50 (A549 cells; Homo sapiens, A549, 72 h) [µM] | IC50 (HT-1197 cells) [µM] | IC50 (T47D cells; Homo sapiens, T47D, 72 h) [µM] | IC50 (MELK) [µM] | IC50 (MELK; [1]) [µM] | IC50 (A549 cells) [µM] | IC50 (T47D cells; 72 hours) [µM]
COc1cc(-c2ccc3ncc(C(=O)C(C)C)c(N[C@H]4CC[C@H](N)CC4)c3c2)cc(Cl)c1O [Example 502, 1-(4-((trans-4-aminocyclohexyl)amino)-6-(3-chloro-4-hydroxy-5-methoxyphenyl)quinolin-3-yl)-2-methylpropan-1-one] | 0.041 | 0.1 | 0.31 | 0.045 | 0.007 | – | – | –
COc1cc(-c2ccc3ncc(C(=O)C4CC4)c(Nc4ccc(CN5CCN(C)CC5)cc4)c3c2)cc(Cl)c1O [Example 398, (6-(3-chloro-4-hydroxy-5-methoxyphenyl)-4-(4-((4-methylpiperazin-1-yl)methyl)phenylamino)quinolin-3-yl)(cyclopropyl)methanone] | 0.73 | 0.38 | 4.7 | 0.78 | – | 0.0084 | – | –
C[S+]([O-])c1cnc2ccc(-c3cc(Cl)c(O)c(Cl)c3)cc2c1N[C@H]1CC[C@H](N)CC1 (stereo partly shown) [Example 491] | 2.9 | 10 | 10 | 7 | 0.0075 | – | – | –
CN(C)CC1CCN(c2c([S+](C)[O-])cnc3ccc(-c4cc(F)c(O)c(Cl)c4)cc23)CC1 (stereo not shown) [Example 467] | 1.2 | 13 | 35 | 1.5 | 0.011 | – | – | –
CC(=O)c1cnc2ccc(-c3cnc(C#N)nc3)cc2c1N[C@H]1CC[C@H](CN(C)C)CC1 [Example 418] | 0.5 | 0.95 | 1.4 | 0.23 | – | 0.0073 | – | –
COc1cc(-c2ccc3ncc(C(=O)C4CC4)c(N4CCN(CCN5CCCC5)CC4)c3c2)cc(Cl)c1O [Example 394, (6-(3-chloro-4-hydroxy-5-methoxyphenyl)-4-(4-(2-(pyrrolidin-1-yl)ethyl)piperazin-1-yl)quinolin-3-yl)(cyclopropyl)methanone] | 0.24 | 0.25 | 5.3 | 0.4 | – | 0.0018 | – | –
CCOc1cc(-c2ccc3ncc(C(=O)C4CC4)c(N4CCC(CN(C)C)CC4)c3c2)cc(Cl)c1O [Example 457] | 0.21 | 0.14 | 2.4 | 0.22 | – | 0.0024 | – | –
CN1CCN(c2ncc(-c3c(C(=O)C4CC4)cnc4ccc(-c5cc(Cl)c(O)c(Cl)c5)cc34)cn2)CC1 [Example 479, cyclopropyl(6-(3,5-dichloro-4-hydroxyphenyl)-4-(2-(4-methylpiperazin-1-yl)pyrimidin-5-yl)quinolin-3-yl)methanone] | 1.7 | 1.7 | 7.9 | 0.92 | 0.04 | – | – | –
O=C(c1cnc2ccc(-c3cc(Cl)c(O)c(Cl)c3)cc2c1-c1ccc(OCCN2CCCC2)cc1)C1CC1 [Example 485, cyclopropyl(6-(3,5-dichloro-4-hydroxyphenyl)-4-(4-(2-(pyrrolidin-1-yl)ethoxy)phenyl)quinolin-3-yl)methanone] | 1.2 | 1.2 | 10 | 0.77 | 0.0056 | – | – | –
O=C(c1cnc2ccc(-c3cc(F)c(O)c(Cl)c3)cc2c1Nc1ccc(Cn2ccnc2)cc1)C1CC1 [Example 489, (4-(4-((1H-imidazol-1-yl)methyl)phenylamino)-6-(3-chloro-5-fluoro-4-hydroxyphenyl)quinolin-3-yl)(cyclopropyl)methanone] | 0.97 | 1.4 | 5.1 | 1.1 | 0.019 | – | – | –
COc1cc(-c2ccc3ncc(C(=O)C4CC4)c(Nc4ccc(CN)cc4)c3c2)cc(Cl)c1O [Example 506, (4-(4-(aminomethyl)phenylamino)-6-(3-chloro-4-hydroxy-5-methoxyphenyl)quinolin-3-yl)(cyclopropyl)methanone] | 0.13 | 0.18 | 0.74 | 0.15 | 0.0032 | – | – | –
CC(=O)c1cnc2ccc(-c3cc(Cl)c(O)c(Cl)c3)cc2c1Nc1ccc(CN2CCCC2)cc1 [Example 415, 1-(6-(3,5-dichloro-4-hydroxyphenyl)-4-((4-(pyrrolidin-1-ylmethyl)phenyl)amino)quinolin-3-yl)ethanone] | 0.067 | 0.15 | 10 | 0.12 | – | 0.035 | – | –
COc1cc(-c2ccc3ncc(C(=O)C4CC4)c(N4CCN(C(=O)CN(C)C)CC4)c3c2)cc(Cl)c1O [Example 437, 1-(4-(6-(3-chloro-4-hydroxy-5-methoxyphenyl)-3-(cyclopropanecarbonyl)quinolin-4-yl)piperazin-1-yl)-2-(dimethylamino)ethanone] | 0.22 | 0.19 | 1.7 | 0.28 | – | 0.0011 | – | –
NCc1ccc(Nc2c(C(=O)C3CC3)cnc3ccc(-c4cc(F)c(O)c(Cl)c4)cc23)cc1 [Example 504, {4-[4-(Aminomethyl)phenylamino]-6-(3-chloro-5-fluoro-4-hydroxyphenyl)quinolin-3-yl}(cyclopropyl)methanone] | 0.019 | 0.081 | 0.71 | 0.084 | 0.0089 | – | – | –
NCc1ccc(Nc2c(C(=O)C3CC3)cnc3ccc(-c4cc(Cl)c(O)c(Cl)c4)cc23)cc1 [Example 507, {4-[4-(Aminomethyl)phenylamino]-6-(3,5-dichloro-4-hydroxyphenyl)quinolin-3-yl}(cyclopropyl)methanone] | 0.018 | 0.059 | 0.58 | 0.094 | 0.0038 | – | – | –
NC[C@H]1CC[C@H](Nc2c(C(=O)C3CC3)cnc3ccc(-c4cc(Cl)c(O)c(Cl)c4)cc23)CC1 [Example 495, {4-[trans-4-(Aminomethyl)cyclohexylamino]-6-(3,5-dichloro-4-hydroxyphenyl)quinolin-3-yl}(cyclopropyl)methanone] | 0.018 | 0.35 | 3.9 | 0.045 | 0.0029 | – | – | –
C[S+]([O-])c1cnc2ccc(-c3cc(F)c(O)c(Cl)c3)cc2c1N[C@H]1CC[C@H](N)CC1 (stereo partly shown) [Example 498] | 2.8 | 10 | 10 | 10 | 0.046 | – | – | –
CN(C)Cc1ccc(Nc2c(C(=O)C3CCCC3)cnc3ccc(-c4cc(F)c(O)c(Cl)c4)cc23)cc1 [Example 388, (6-(3-chloro-5-fluoro-4-hydroxyphenyl)-4-(4-((dimethylamino)methyl)phenylamino)quinolin-3-yl)(cyclopentyl)methanone] | 0.21 | 0.52 | 1.5 | 0.52 | – | 0.014 | – | –
CC(=O)c1cnc2ccc(-c3cc(F)c(O)c(Cl)c3)cc2c1Nc1ccc(N2CCN(C)CC2)nc1 [Example 487, 1-(6-(3-Chloro-5-fluoro-4-hydroxyphenyl)-4-(6-(4-methylpiperazin-1-yl)pyridin-3-ylamino)quinolin-3-yl)ethanone] | 0.1 | – | 1.4 | – | 0.01 | – | 0.088 | 0.041
O=C(c1cnc2ccc(-c3cc(F)c(O)c(Cl)c3)cc2c1Nc1ccc(CN2CCOCC2)cc1)C1CC1 [Example 460] | 0.42 | 0.59 | 4.2 | 0.65 | – | 0.083 | – | –
COc1cc(-c2ccc3ncc([S+](C)[O-])c(N4CCC(CN(C)C)CC4)c3c2)cc(Cl)c1O (stereo not shown) [Example 468] | 0.93 | 1.4 | 9.2 | 0.93 | 0.0051 | – | – | –
CN1CCN(Cc2cccc(-c3c(C(=O)C4CC4)cnc4ccc(-c5cc(Cl)c(O)c(Cl)c5)cc34)c2)CC1 [Example 478, cyclopropyl(6-(3,5-dichloro-4-hydroxyphenyl)-4-(3-((4-methylpiperazin-1-yl)methyl)phenyl)quinolin-3-yl)methanone] | 0.75 | 0.87 | 2.9 | 0.53 | 0.0078 | – | – | –
O=C(c1cnc2ccc(-c3cc(F)c(O)c(Cl)c3)cc2c1N1CCN(CCN2CCCC2)CC1)C1CC1 [Example 402, (6-(3-chloro-5-fluoro-4-hydroxyphenyl)-4-(4-(2-(pyrrolidin-1-yl)ethyl)piperazin-1-yl)quinolin-3-yl)(cyclopropyl)methanone] | 0.48 | 1.2 | 5.1 | 0.88 | – | 0.0058 | – | –
CN1CCN(c2ccc(Nc3c(C(=O)C4CC4)cnc4ccc(-c5cc(F)c(O)c(Cl)c5)cc34)cn2)CC1 [Example 471] | 0.14 | 0.21 | 2.8 | 0.14 | 0.011 | – | – | –
CN(C)Cc1ccc(Nc2c(S(C)(=O)=O)cnc3ccc(-c4cc(Cl)c(O)c(Cl)c4)cc23)cc1 [Example 400, 2,6-dichloro-4-(4-((4-((dimethylamino)methyl)phenyl)amino)-3-(methylsulfonyl)quinolin-6-yl)phenol] | 0.07 | 0.3 | 1.8 | 0.23 | – | 0.0034 | – | –
COc1cc(-c2ccc3ncc(C(=O)C4CC4)c(Nc4ccc(N5CCN(C)CC5)nc4)c3c2)cc(Cl)c1O [Example 470] | 0.68 | 0.56 | 2.2 | 0.26 | 0.015 | – | – | –
